Test results from ChEMBL document CHEMBL1201862, “PubChem BioAssay data set” (2004).
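Five concentrations, 48 hours, 96-well plates. GI50 = concentration required for 50% inhibition of growth.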 Activity calls are given as the source filed them. Cut-off read from the data, not from the text of the source: active = GI50 up to about 1.1 µM and inactive = higher.

Columns and labels:
Assay in all cases: inhibition of tumour cell growth, NCI panel, 48 h
NCI-H23 = test system: NCI-H23
SNB-75 = test system: SNB-75
A549 = test system: A549
HCT-116 = test system: HCT-116
Malme-3M = test system: Malme-3M
HCT-15 = test system: HCT-15
MCF7 = test system: MCF7
SF-295 = test system: SF-295
SNB-19 = test system: SNB-19
SK-MEL-2 = test system: SK-MEL-2
PC-3 = test system: PC-3
CAKI-1 = test system: CAKI-1
RPMI-8226 = test system: RPMI-8226
COLO 205 = test system: COLO 205
HCC 2998 = test system: HCC 2998
SF-268 = test system: SF-268
SK-OV-3 = test system: SK-OV-3
U-251 = test system: U-251
NCI-H522 = test system: NCI-H522
NCI-H460 = test system: NCI-H460

Compound | GI50 (NCI-H23) | GI50 (SNB-75) | GI50 (A549) | GI50 (HCT-116) | GI50 (Malme-3M) | GI50 (HCT-15) | GI50 (MCF7) | GI50 (SF-295) | GI50 (SNB-19) | GI50 (SK-MEL-2) | GI50 (PC-3) | GI50 (CAKI-1) | GI50 (RPMI-8226) | GI50 (COLO 205) | GI50 (HCC 2998) | GI50 (SF-268) | GI50 (SK-OV-3) | GI50 (U-251) | GI50 (NCI-H522) | GI50 (NCI-H460)
COc1cccc(N(CN2CC=CC2=O)C(C)=O)c1 | > 100 µM (inactive) | > 100 µM (inactive) | > 100 µM (inactive) | > 100 µM (inactive) | > 100 µM (inactive) | > 100 µM | > 100 µM (inactive) | > 100 µM (inactive) | > 100 µM (inactive) | > 100 µM (inactive) | > 100 µM (inactive) | > 100 µM (inactive) | > 100 µM (inactive) | > 100 µM (inactive) | > 100 µM (inactive) | > 100 µM (inactive) | > 100 µM (inactive) | > 100 µM (inactive) | > 100 µM (inactive) | > 100 µM (inactive)
COc1ccccc1/C=C\c1cnnc2ccccc12 | > 10 µM (inactive) | 9.02 µM (inactive) | > 10 µM (inactive) | 5.77 µM (inactive) | > 10 µM (inactive) | > 10 µM | 3.56 µM (inactive) | > 10 µM (inactive) | > 10 µM (inactive) | > 10 µM (inactive) | > 10 µM (inactive) | > 10 µM (inactive) | > 10 µM (inactive) | > 10 µM (inactive) | > 10 µM (inactive) | > 10 µM (inactive) | > 10 µM (inactive) | > 10 µM (inactive) | > 10 µM (inactive) | > 10 µM (inactive)
COc1ccc(OC)c2c(C)ccnc12 | 27.2 µM (inactive) | 33.1 µM (inactive) | 21.4 µM (inactive) | 6.31 µM (inactive) | 12.2 µM (inactive) | 4.25 µM | 9.04 µM (inactive) | 16.5 µM (inactive) | 19.9 µM (inactive) | 22.8 µM (inactive) | 20.3 µM (inactive) | 28.9 µM (inactive) | 32.9 µM (inactive) | 39.5 µM (inactive) | > 95.5 µM (inactive) | 9.89 µM (inactive) | > 86.1 µM (inactive) | 16.4 µM (inactive) | 4.1 µM (inactive) | 21.7 µM (inactive)
CC(=O)OCC1OC(n2cnc3nc(Br)[nH]c(=O)c32)C(OC(C)=O)C1OC(C)=O (stereo not given) | > 100 µM (inactive) | 70.3 µM (inactive) | > 100 µM (inactive) | > 100 µM (inactive) | > 100 µM (inactive) | > 100 µM | 62.4 µM (inactive) | > 100 µM (inactive) | > 100 µM (inactive) | > 100 µM (inactive) | > 100 µM (inactive) | > 100 µM (inactive) | > 100 µM (inactive) | > 100 µM (inactive) | > 100 µM (inactive) | > 100 µM (inactive) | > 100 µM (inactive) | > 100 µM (inactive) | > 100 µM (inactive) | > 100 µM (inactive)
CNC(=O)CCCN(C)C(=O)CCCCC(=O)N(C)C | > 60.1 µM (inactive) | > 53.8 µM (inactive) | > 57.1 µM (inactive) | > 57.5 µM (inactive) | 33.5 µM (inactive) | > 60.4 µM | > 62.2 µM (inactive) | > 59.2 µM (inactive) | > 60.1 µM (inactive) | > 50.9 µM (inactive) | > 54.3 µM (inactive) | > 37.6 µM (inactive) | > 57.1 µM (inactive) | > 57.7 µM (inactive) | > 51.1 µM (inactive) | > 60.8 µM (inactive) | > 61.5 µM (inactive) | > 58.2 µM (inactive) | > 58.6 µM (inactive) | > 56 µM (inactive)
CC(=O)O[C@H]1C[C@H]2C(=S)Nc3ccccc3C(=S)N2C1 | > 100 µM (inactive) | 88.3 µM (inactive) | > 100 µM (inactive) | > 100 µM (inactive) | > 100 µM (inactive) | > 100 µM | > 100 µM (inactive) | > 100 µM (inactive) | > 100 µM (inactive) | > 100 µM (inactive) | > 100 µM (inactive) | > 100 µM (inactive) | > 100 µM (inactive) | > 100 µM (inactive) | > 100 µM (inactive) | > 100 µM (inactive) | > 100 µM (inactive) | > 100 µM (inactive) | > 100 µM (inactive) | > 100 µM (inactive)
CCOC(=O)c1nnc2c(C(=O)OCC)c3ccccc3n2c1N | 5.94 µM (inactive) | 11 µM (inactive) | 10.5 µM (inactive) | 29.3 µM (inactive) | 2.1 µM (inactive) | 7.66 µM | 13.1 µM (inactive) | 26.9 µM (inactive) | 4.93 µM (inactive) | 5.15 µM (inactive) | 5.35 µM (inactive) | 7.48 µM (inactive) | 1.54 µM (inactive) | 10.2 µM (inactive) | 34 µM (inactive) | 19.3 µM (inactive) | 6.04 µM (inactive) | 5.41 µM (inactive) | 6.21 µM (inactive) | 8.13 µM (inactive)
COC1=CC2(CC(OC)=C1OC)OC21COc2ccccc2C1=O (stereo not given) | 58.5 µM (inactive) | 37.4 µM (inactive) | 56.4 µM (inactive) | 50.5 µM (inactive) | > 100 µM (inactive) | 65.8 µM | 55.7 µM (inactive) | 61.2 µM (inactive) | 65.2 µM (inactive) | 40.2 µM (inactive) | 84.5 µM (inactive) | > 100 µM (inactive) | 51.5 µM (inactive) | > 100 µM (inactive) | > 100 µM (inactive) | > 100 µM (inactive) | > 100 µM (inactive) | 73.8 µM (inactive) | 75 µM (inactive) | 42.9 µM (inactive)
O=[N+]([O-])c1cc([As](Br)c2ccc(O)c([N+](=O)[O-])c2)ccc1O | 2.17 µM (inactive) | 1.93 µM (inactive) | 2.62 µM (inactive) | 2 µM (inactive) | 0.632 µM (active) | 1.99 µM | 1.27 µM (inactive) | 1.8 µM (inactive) | 1.94 µM (inactive) | 0.746 µM (active) | 1.95 µM (inactive) | 1.7 µM (inactive) | 0.208 µM (active) | 1.26 µM (inactive) | 1.02 µM (active) | 2.14 µM (inactive) | 3.39 µM (inactive) | 1.82 µM (inactive) | 0.145 µM (active) | 3.12 µM (inactive)
O=C1c2c[nH]nc2C(c2ccccc2)N1c1ccccc1 (stereo not given) | > 10 µM (inactive) | > 10 µM (inactive) | > 10 µM (inactive) | > 10 µM (inactive) | > 10 µM (inactive) | > 10 µM | > 10 µM (inactive) | > 10 µM (inactive) | > 10 µM (inactive) | > 10 µM (inactive) | > 10 µM (inactive) | > 10 µM (inactive) | > 10 µM (inactive) | > 10 µM (inactive) | > 10 µM (inactive) | > 10 µM (inactive) | > 10 µM (inactive) | > 10 µM (inactive) | > 10 µM (inactive) | > 10 µM (inactive)
O=C(CC(=O)c1ccccc1NC1=Cc2ccccc2C(=O)C1=O)C(=O)NC1=C(Cl)C(=O)c2ccccc2C1=O | 1.57 µM (inactive) | 1.69 µM (inactive) | 4.55 µM (inactive) | 2.31 µM (inactive) | 1.22 µM (inactive) | 1.67 µM | 0.804 µM (active) | 3.87 µM (inactive) | 5.56 µM (inactive) | 2.47 µM (inactive) | 2.23 µM (inactive) | 8.28 µM (inactive) | 1.56 µM (inactive) | 14.8 µM (inactive) | 9.84 µM (inactive) | 2.93 µM (inactive) | 23.3 µM (inactive) | 3.04 µM (inactive) | 1.91 µM (inactive) | 3.04 µM (inactive)
COc1ccccc1NC(=S)N/N=C1\C(=O)Nc2ccccc21 | > 100 µM (inactive) | 58.9 µM (inactive) | > 100 µM (inactive) | > 100 µM (inactive) | > 100 µM (inactive) | > 100 µM | 42.6 µM (inactive) | > 100 µM (inactive) | > 100 µM (inactive) | > 100 µM (inactive) | > 100 µM (inactive) | > 100 µM (inactive) | > 100 µM (inactive) | > 100 µM (inactive) | > 100 µM (inactive) | 0.583 µM (active) | > 100 µM (inactive) | > 100 µM (inactive) | > 100 µM (inactive) | > 100 µM (inactive)
Cc1cc(-c2nc3cc(F)ccc3s2)ccc1NC(=O)[C@@H](N)CCCCN | 1.48 µM (inactive) | 1.82 µM (inactive) | 1.67 µM (inactive) | 2 µM (inactive) | 17.4 µM (inactive) | 4.33 µM | 0.01 µM (active) | 2.65 µM (inactive) | 10.4 µM (inactive) | 2.89 µM (inactive) | 8.05 µM (inactive) | 0.647 µM (active) | 2.09 µM (inactive) | 2.58 µM (inactive) | 0.735 µM (active) | 6.75 µM (inactive) | 8.26 µM (inactive) | 1.88 µM (inactive) | 5.46 µM (inactive) | 0.132 µM (active)
